Assays:
PR3 [1] = assay: Bone marrow PR3 activity after repeated dosing, Sprague Dawley rats; format: in vivo; conditions: for Reduction of PR3 activity vs vehicle / Change From Vehicle Control (%) PR3: 9 days
Method: (§1) Briefly, animals were weighed and randomized into different treatment groups. In total, three different dosing levels of brensocatib were tested in each species and strain; each QD dosing level was equivalent to 1.5-times the matching daily BID dose. For BID dosing, the second daily dose was administered 8-h post the morning dose. C57BL/6 mice were dosed either BID or QD for 7 consecutive days at 0/0, 0.5/0.75, 2/3, and 20/30 mg/kg/day (BID/QD). BALB/c mice were dosed for 7 consecutive days at 0/0, 0.2/0.3, 2/3, and 20/30 mg/kg/day (BID/QD). SD rats were dosed for 9 consecutive days at 0/0, 0.2/0.3, 2/3, and 20/30 mg/kg/day (BID/QD). Wistar rats were dosed for 7 consecutive days at 0/0, 0.2/0.3, 2/3, and 20/30 mg/kg/day (BID/QD).
(§2) At the completion of the study, animals were sacrificed 16–24 h post their final dose. The hind limb bones (femurs and tibias) were collected at necropsy for bone marrow analysis of NSP activities by kinetic enzymatic assays ([Basso et al., 2022]). See section Quantification of Bone Marrow NSP Activities for details.
(§3) For the mice, each animal had the femurs and tibias of both hind limbs harvested. For the rat, the femur and tibia from a single hind limb per animal was harvested. Bones were kept on wet ice until processing for bone marrow collection. In brief, bone cutters were used to cut the epiphysis (knobby ends) off the long bones to expose the bone marrow filled cavity. Each bone cavity was then flushed with 5 mL/bone (mouse) or 10 mL/bone (rat) of ice-cold RPMI media through a […] and collected in a 50-mL conical tube. Cells were spun down at 2,500 × g at 4°C for 5 min and the supernatant was aspirated. After which, bone marrow cells were lysed with 1X red blood cell (RBC) lysis buffer (Abcam, ab204733) to eliminate contaminating RBCs and washed with PBS to remove any residual RBC lysis buffer. The resulting white blood cells (WBC) were subsequently lysed with 1% (v/v) Triton X-100 in PBS. Lysates were added to 96-well plates and stored at −80°C until NSP analyses.
(§4) Bone marrow lysates prepared as described above were diluted and plated onto 96-well assay plates to quantify NSP activities as described previously ([Basso et al., 2022]). Briefly, peptide substrates for NE (N-Methoxysuccinyl-Ala-Ala-Pro-Val-7-amido-4-methylcoumarin; Sigma; St. Louis, MO; Excitation/Emission at 350/450 nm), PR3 ((7-Methoxycoumarin-4-yl)acetyl-lysyl-(picolinoyl)-Tyr-Asp-Ala-Lys-Gly-Asp-N-3-(2-4-dinitrophenyl)-2-3-diaminopropyonyl-NH2); GenScript; Piscataway, NJ; Excitation/Emission at 340/430 nm), and CatG (N-Succinyl-Ala-Ala-Pro-Phe p nitroanilide; Sigma; Absorbance at 405 nm) were added at a final assay concentration of 100 μM, 40 μM, and 200 μM, respectively, and either fluorescence or absorbance was quantified using a Synergy microplate reader (BioTek; Winooski, VT). The specific NSP activity in each sample was calculated as the total activity minus the activity in the presence of a specific NSP inhibitor (if used), including elastase inhibitor (Abcam) for NE, sivelestat (Abcam) for PR3, and cathepsin G inhibitor I (Cayman Chemical; Ann Arbor, MI) for CatG. NSP concentrations were interpolated based on their activities relative to the standard curves created using active human NE protein (Sigma), active human PR3 protein (Sigma), and active human CatG protein (Sigma), respectively. Due to unavailability of commercial mouse and/or rat NE, PR3, and CatG proteins, the corresponding human proteins were used instead since their catalytic ability is considered to be conserved across species. A portion of each cell lysate sample was retained for protein quantification using a Pierce™ BCA Protein Assay Kit (Thermo Fisher). The NSP activities were normalized for the cell lysate protein concentrations.
(§5) The Pierce™ BCA Protein Assay Kit was used to measure the total protein of the samples after lysis to allow for subsequent normalization. […]

PR3 [2] = assay: Bone marrow PR3 activity after repeated dosing, Wistar rats; format: in vivo; conditions: for Reduction of PR3 activity vs vehicle / Change From Vehicle Control (%) PR3: 7 days
Method: as §1, §2, §3, §4, §5

NE [3] = assay: PD recovery study, bone marrow NE activity, C57BL/6 mice; format: in vivo; conditions: for Percent change from vehicle NE: bone marrow
Method: A PD recovery study was performed in female C57BL/6 mice dosed BID for 8 consecutive days. Mice were dosed by oral gavage either with vehicle (0 mg/kg) or 5 mg/kg brensocatib (BID; 10 mg/kg/day). After 8 consecutive days of dosing, the animals were maintained without further treatment until prescribed sacrifice (days: 1, 3, 6, 8, and 10 days post final dose). Plasma was collected from animals during the first 24 h of dosing at −0.5 (half-hour prior to dosing), 1, 8, 9, and 24 h post initial dose. Note that the 8- and 24-h plasma samples were prior to the afternoon dose and prior to the second day dose, respectively. Plasma was used for PK analysis via LC-MS/MS. On prescribed days, animals were sacrificed, and the hind limb bones (femurs and tibias) were collected at necropsy for bone marrow analysis of NSP activities by kinetic enzymatic assays.
as §3, §4
The Pierce™ BCA Protein Assay Kit was used to measure the total protein of the samples after lysis to allow for subsequent normalization. The manufacturer’s instructions for use were followed when performing this assay on a portion of the sample lysates which were diluted in PBS, the same diluent as used for preparation of the standard. Plates were read on the Biotek Synergy plate reader with Gen5 software.

NE [4] = system: NE; design: method as in Chalmers et al., 2020; conditions: Phase 2 trial in NCFBE (WILLOW, NCT03218917), vs placebo; ref Chalmers et al., 2020; cited from earlier work
PR3 [5] = system: PR3; design: method as in Cipolla et al., 2023; conditions: Phase 2 trial in NCFBE (WILLOW); ref Cipolla et al., 2023; cited from earlier work
CatG = system: CatG; design: method as in Cipolla et al., 2023; conditions: Phase 2 trial in NCFBE (WILLOW); ref Cipolla et al., 2023; cited from earlier work
[6] = BID highest dose (20 mg/kg/day)
[7] = highest dose level 20/30 (BID/QD) mg/kg/day
[8] = after 8 days of 5 mg/kg BID, curve fit with free min and max

Cn1c(=O)oc2ccc(-c3ccc(C[C@@H](C#N)NC(=O)[C@@H]4CNCCCO4)cc3)cc21 [brensocatib]
Reduction of PR3 activity vs vehicle (PR3 [1]; [6]): 68% | Reduction of PR3 activity vs vehicle (PR3 [1]; QD highest dose (30 mg/kg/day)): 72% | Combined BID and QD percent reduction, PR3 (PR3 [1]; [7]): 70% | Change From Vehicle Control (%) PR3 (PR3 [1]; oral BID 0.2 mg/kg/day): +23% (p = 0.8292) | Change From Vehicle Control (%) PR3 (PR3 [1]; oral BID 2 mg/kg/day): −31% (p = 0.6727) | Change From Vehicle Control (%) PR3 (PR3 [1]; oral BID 20 mg/kg/day): −68% (p = 0.0907) | Change From Vehicle Control (%) PR3 (PR3 [1]; oral QD 0.3 mg/kg/day): −34% (p = 0.4869) | Change From Vehicle Control (%) PR3 (PR3 [1]; oral QD 3 mg/kg/day): −59% (p = 0.0837) | Change From Vehicle Control (%) PR3 (PR3 [1]; oral QD 30 mg/kg/day): −72% (p = 0.0285) | Reduction of PR3 activity vs vehicle (PR3 [2]; [6]): 46% | Reduction of PR3 activity vs vehicle (PR3 [2]; QD highest dose (30 mg/kg/day)): 59% | Combined BID and QD percent reduction, PR3 (PR3 [2]; [7]): 53% | Change From Vehicle Control (%) PR3 (PR3 [2]; oral BID 0.2 mg/kg/day): +10% (p = 0.9848) | Change From Vehicle Control (%) PR3 (PR3 [2]; oral BID 2 mg/kg/day): +22% (p = 0.8768) | Change From Vehicle Control (%) PR3 (PR3 [2]; oral BID 20 mg/kg/day): −46% (p = 0.4135) | Change From Vehicle Control (%) PR3 (PR3 [2]; oral QD 0.3 mg/kg/day): +6% (p = 0.9963) | Change From Vehicle Control (%) PR3 (PR3 [2]; oral QD 3 mg/kg/day): −35% (p = 0.5635) | Change From Vehicle Control (%) PR3 (PR3 [2]; oral QD 30 mg/kg/day): −59% (p = 0.1437) | Recovery: Time to reach 50% recovery, NE (NE [3]; [8]): 0.8 days | Recovery: Time to reach 90% recovery, NE (NE [3]; [8]): 4.9 days | Recovery: Time to reach 95% recovery, NE (NE [3]; [8]): 5.6 days | Recovery: Time to reach 100% recovery, NE (NE [3]; [8]): 6.6 days | Percent change from vehicle NE (NE [3]; 1 day recovery after 8 days of 5 mg/kg BID): −49% (p < 0.0001) | Percent change from vehicle NE (NE [3]; 3 days recovery after 8 days of 5 mg/kg BID): −4% (p = 0.9544) | Percent change from vehicle NE (NE [3]; 6 days recovery after 8 days of 5 mg/kg BID): −20% (p = 0.0067) | Percent change from vehicle NE (NE [3]; 8 days recovery after 8 days of 5 mg/kg BID): −2% (p = 0.9986) | Percent change from vehicle NE (NE [3]; 10 days recovery after 8 days of 5 mg/kg BID): +15% (p = 0.0607) | sputum NE activity (NE [4]): dose-dependent reduction | sputum PR3 activity (PR3 [5]): Dose-dependent reductions | sputum CatG activity (CatG): Dose-dependent reductions

From publication PMC10394516, “The pharmacokinetic profile of brensocatib and its effect on pharmacodynamic biomarkers including NE, PR3, and CatG in various rodent species” (Frontiers in Pharmacology, 2023)
